Source: the supplement of paper PMC10307832

Key:
Test in all cases: relative viability (nuclei count vs DMSO), 5 days (fraction); higher = more cells survive
[1] = compound: COc1ccc(-c2ccc3c(N4CCOC[C@@H]4C)nc(N4CCOC[C@@H]4C)nc3n2)cc1CO [AZD8055]
How it was run: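 Viability was read as treated-well nuclei divided by vehicle-well nuclei, using the median across plates. Lung cancer cell lines in 1536-well plates were kept overnight at 37 °C, pinned with five √10-spaced library-drug doses, and after 5 days were Hoechst-stained, imaged at 4× and counted in MetaXpress. Plates passed only with control CV below 25% and at least one doubling.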

[2] = compound: COc1ccc(-c2ccc3c(N4CCOC[C@@H]4C)nc(N4CCOC[C@@H]4C)nc3n2)cc1CO [AZD8055] + N=C(N)NC(=N)NCCc1ccccc1 [Phenformin] (partner 250 µM)
How it was run: (§1)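 Cells from lung cancer lines were seeded into 1536-well plates and, one day later, dosed by pin tool. Treatments were either a single drug or a fixed dose of an anchor drug with five library-drug doses (not always all listed) in √10 steps. After 5 days, nuclei were stained in a one-step fixation (final 0.05% Triton X-100, 1% formaldehyde, 1 ug/ml Hoechst) and counted on 4× images, and relative viability is the treated-to-vehicle nuclei ratio, as the median of duplicate plates.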

[3] = compound: COc1ccc(-c2ccc3c(N4CCOC[C@@H]4C)nc(N4CCOC[C@@H]4C)nc3n2)cc1CO [AZD8055] + COc1cccc2cc(-c3nc([C@H]4CC[C@H](C(=O)O)CC4)n4ncnc(N)c34)[nH]c12 [OSI-027] (partner 0.5 µM)
How it was run: as §1

[4] = compound: COc1ccc(-c2ccc3c(N4CCOC[C@@H]4C)nc(N4CCOC[C@@H]4C)nc3n2)cc1CO [AZD8055] + CC(=O)Nc1cccc(-n2c(=O)n(C3CC3)c(=O)c3c(Nc4ccc(I)cc4F)n(C)c(=O)c(C)c32)c1 [Trametinib] (partner 0.02 µM)
How it was run: as §1

Cell Line	relative viability ([1]; 0.01 µM)	relative viability ([1]; 0.03162 µM)	relative viability ([1]; 0.1 µM)	relative viability ([1]; 0.3162 µM)	relative viability ([1]; 1 µM)	relative viability ([2]; first compound 0.01 µM)	relative viability ([2]; first compound 0.03162 µM)	relative viability ([2]; first compound 0.1 µM)	relative viability ([2]; first compound 0.3162 µM)	relative viability ([2]; first compound 1 µM)	relative viability ([3]; first compound 0.01 µM)	relative viability ([3]; first compound 0.03162 µM)	relative viability ([3]; first compound 0.1 µM)	relative viability ([3]; first compound 0.3162 µM)	relative viability ([3]; first compound 1 µM)	relative viability ([4]; first compound 0.01 µM)	relative viability ([4]; first compound 0.03162 µM)	relative viability ([4]; first compound 0.1 µM)	relative viability ([4]; first compound 0.3162 µM)	relative viability ([4]; first compound 1 µM)
201T	0.955	0.987	0.907	0.635	0.487	0.473	0.438	0.422	0.318	0.314	0.786	0.746	0.676	0.484	0.383	0.7	0.689	0.629	0.519	0.492
A549	1	0.83	0.639	0.19	0.106	0.175	0.155	0.1	0.0798	0.0524	–	–	–	–	–	–	–	–	–	–
A-427	1.05	0.871	0.893	0.574	0.586	0.459	0.381	0.321	0.25	0.291	0.49	0.491	0.545	0.493	0.434	0.746	0.577	0.488	0.351	0.334
ABC-1	0.948	1.08	0.757	0.332	0.413	0.198	0.289	0.226	0.197	0.22	0.537	0.551	0.635	0.345	0.36	–	–	–	–	–
BEN	0.901	0.6	0.53	0.358	0.325	0.293	0.26	0.292	0.242	0.228	0.308	0.374	0.322	0.291	0.251	0.87	0.626	0.569	0.467	0.463
CAL-12T	1.06	0.995	0.7	0.322	0.274	0.567	0.626	0.479	0.23	0.2	0.717	0.738	0.614	0.208	0.26	0.33	0.308	0.227	0.186	0.196
COR-L23	1.35	0.921	0.862	0.28	0.207	0.485	0.373	0.341	0.213	0.157	0.765	0.588	0.526	0.297	0.256	0.512	0.528	0.334	0.127	0.157
COR-L 105	1.04	0.947	0.64	0.378	0.435	0.506	0.529	0.35	0.278	0.275	0.682	0.702	0.615	0.382	0.383	0.416	0.412	0.44	0.404	0.416
Calu-6	1.13	0.991	0.835	0.621	0.449	–	–	–	–	–	–	–	–	–	–	–	–	–	–	–
ChaGo-K-1	1.02	0.998	0.952	0.858	0.722	0.508	0.467	0.494	0.407	0.374	0.584	0.576	0.624	0.56	0.541	1.03	0.884	0.858	0.66	0.628
EKVX	1.09	1.08	0.818	0.602	0.432	0.225	0.247	0.229	0.209	0.188	0.753	0.745	0.665	0.51	0.411	0.339	0.389	0.296	0.247	0.227
EMC-BAC-2	0.992	0.784	0.698	0.356	0.336	0.5	0.42	0.36	0.283	0.258	0.364	0.387	0.358	0.291	0.284	0.87	0.818	0.733	0.363	0.434
EPLC-272H	0.807	0.73	0.47	0.356	0.358	0.326	0.214	0.216	0.198	0.212	0.252	0.255	0.28	0.228	0.243	0.278	0.257	0.227	0.189	0.131
H3255	1.11	0.948	0.778	0.436	0.349	0.349	0.397	0.332	0.279	0.305	0.706	0.572	0.587	0.454	0.423	0.687	0.588	0.455	0.306	0.322
HARA	1.11	1.06	0.774	0.563	0.304	0.548	0.478	0.5	0.307	0.215	0.612	0.641	0.419	0.419	0.249	–	0.671	0.497	0.285	0.223
HCC-15	1.09	1.03	0.883	0.53	0.351	0.547	0.459	0.425	0.286	0.232	0.805	0.732	0.658	0.38	0.303	0.373	0.337	0.271	0.167	0.186
HCC-44	0.99	1.03	0.844	0.552	0.473	0.216	0.197	0.132	0.158	0.128	0.6	0.526	0.483	0.267	0.308	0.994	1.16	0.907	0.802	0.731
